In data set [1] the target is T1, L-lactate dehydrogenase A chain (Homo sapiens, UniProt P00338).
Description: Inhibition of human liver LDHA using sodium pyruvate as substrate after 5 mins in presence of NAPDH and EDTA by diaphorase/resazurin based fluorescence assay
Data set [2] concerns the target T2, L-lactate dehydrogenase (Homo sapiens, UniProt V9HWB9). Description: Inhibition of LDH in human A673 cells assessed as reduction in lactate production preincubated for 2 hrs measured after 30 mins by high throughput fluorescence assay. It is filed as cell-based.
Data set [3] addresses T2, L-lactate dehydrogenase. Description: Inhibition of LDH in human MIAPaCa2 cells assessed as reduction in lactate production preincubated for 2 hrs measured after 30 mins by high throughput fluorescence assay. It is filed as cell-based.
For data set [4], the target named is T1, L-lactate dehydrogenase A chain. The source holds these as a separate data set.
Description: Inhibition of human liver LDHA using sodium pyruvate as substrate after 5 mins in presence of NAPDH and in absence of EDTA by diaphorase/resazurin based fluorescence assay
Data set [5] is described as follows: Inhibition of pig heart MDH using malic acid as substrate preincubated for 10 mins followed by substrate addition measured up to 5 mins by resorufin-based fluorescence assay. Details: species or system Sus scrofa.
A short description of data set [6]: Drug level in human A673 cells by LC-MS/MS analysis. Type of data set: ADME, cell-based.
Data set [7] can be described thus: Drug level in human MIAPaCa2 cells by LC-MS/MS analysis. Type of data set: ADME, cell-based. Particulars: mia paca-2.
The target of data set [8] is Isocitrate dehydrogenase [NADP] cytoplasmic (Homo sapiens, UniProt O75874). Briefly: Inhibition of wild type IDH1 (unknown origin) using isocitrate as substrate preincubated for 30 mins followed by substrate addition in presence of NADP+ measured up to 5 mins by resorufin-based fluorescence assay.

Activity calls are given as the source filed them. No cut-off for these calls is given here.

Chain of Isocitrate dehydrogenase [NADP] cytoplasmic (O75874 whole entry): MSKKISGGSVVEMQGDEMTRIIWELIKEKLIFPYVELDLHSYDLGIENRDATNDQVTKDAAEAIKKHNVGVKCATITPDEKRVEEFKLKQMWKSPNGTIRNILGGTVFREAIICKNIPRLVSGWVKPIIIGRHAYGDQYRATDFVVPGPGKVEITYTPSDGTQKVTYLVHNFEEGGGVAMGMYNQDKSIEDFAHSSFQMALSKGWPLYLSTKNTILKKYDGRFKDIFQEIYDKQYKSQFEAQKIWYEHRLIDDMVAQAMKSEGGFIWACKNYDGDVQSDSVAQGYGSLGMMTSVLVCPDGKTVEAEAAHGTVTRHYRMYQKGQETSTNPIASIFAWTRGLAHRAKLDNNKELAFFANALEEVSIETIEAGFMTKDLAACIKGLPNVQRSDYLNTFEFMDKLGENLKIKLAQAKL

Turning to `Nc1cc(-c2ccccc2)nn1-c1nc(C(=O)O)cs1`, the results for the IC50 in data set [1] and in data set [4] were over 57 µM and 26.7 µM, respectively. The inhibition entry at L-lactate dehydrogenase [2] and at L-lactate dehydrogenase [3] was “inactive” each time.

For the compound `O=C(O)c1csc(-n2nc(-c3cccc(-c4ccccc4F)c3)cc2O)n1`, the IC50 was over 57 µM in data set [1] and 0.095 µM in data set [4]. Further, the inhibition result at L-lactate dehydrogenase [2] and at L-lactate dehydrogenase [3] was “inactive” throughout.

`O=C(O)c1csc(-n2nc(-c3cccc4ccccc34)cc2O)n1`: the IC50 in data set [1] was over 57 µM; in data set [4], 0.213 µM. Further, the inhibition result at L-lactate dehydrogenase [2] and at L-lactate dehydrogenase [3] was “inactive” throughout.

Consider `O=C(O)c1csc(-n2nc(-c3cc(F)cc(F)c3)cc2O)n1`, for which the values for the IC50 in data set [1] and in data set [4] were over 57 µM and 0.11 µM, respectively. Besides, the inhibition result on L-lactate dehydrogenase [2] and at L-lactate dehydrogenase [3] was “inactive” throughout.

On to `NS(=O)(=O)c1ccc(Oc2c(-c3cccc(-c4ccccc4)c3)nn(-c3nc(C(=O)O)cs3)c2C2CC2)cc1`, for which the IC50 in data set [5] is over 57 µM. Also, the Drug uptake entry in data set [6] and in data set [7] was “Active” in each case.

Regarding `N#Cc1c(Cc2ccc(S(N)(=O)=O)cc2)c(-c2ccccc2)nn1-c1nc(C(=O)O)cs1`, in data set [1], the concentration for half-maximal inhibition (IC50) is 0.115 µM.

Regarding `O=C(O)c1csc(-n2nc(-c3ccccc3)cc2O)n1`, the IC50 was over 57 µM in data set [1] and 0.144 µM in data set [4]. In addition, the inhibition entry at L-lactate dehydrogenase [2] and at L-lactate dehydrogenase [3] was “inactive” throughout.

Take `NS(=O)(=O)c1ccc(Cc2c(-c3ccccc3)nn(-c3nc(C(=O)O)cs3)c2CC2CC2)cc1`: the IC50 is 47.4 µM in data set [8] and over 57 µM in data set [5]. For the same compound, the Drug uptake entry in data set [6] and in data set [7] was “Active” in each case.

On to `NC(=O)c1ccc(Cc2c(-c3cccc(-c4ccccc4)c3)nn(-c3nc(C(=O)O)cs3)c2O)cc1`, for which the concentration for half-maximal inhibition (IC50) in data set [1] was over 57 µM.

For `O=C1N[C@](c2ccc(N3CCOCC3)cc2)(c2ccsc2)CC(O)=C1Sc1ccccc1Cl`, the concentration for half-maximal inhibition (IC50) in data set [8] and in data set [5] was over 57 µM throughout. Further, the Drug uptake result in data set [6] and in data set [7] was “Active” each time.

Take `O=C(O)c1csc(-n2nc(-c3ccc(Cl)cc3)cc2C(F)(F)F)n1`: the concentration for half-maximal inhibition (IC50) in data set [1] was 27.7 µM; in data set [4] it was 26.6 µM. Besides, the inhibition result on L-lactate dehydrogenase [2] and at L-lactate dehydrogenase [3] was “inactive” in each case.

As for `CC(C)c1cc(-c2ccccc2)nn1-c1nc(C(=O)O)cs1`, the IC50 in data set [1] and in data set [4] was over 57 µM throughout. Moreover, the inhibition result on L-lactate dehydrogenase [2] and at L-lactate dehydrogenase [3] was “inactive” each time.

Regarding `O=C(O)c1csc(-n2nc(C3CCCCC3)cc2O)n1`, the values for the half-inhibitory concentration (IC50) in data set [1] and in data set [4] were over 57 µM and 1.1 µM, respectively. Moreover, the inhibition result at L-lactate dehydrogenase [2] and on L-lactate dehydrogenase [3] was “inactive” each time.

Consider `NS(=O)(=O)N1CCN(Cc2cn(-c3nc(C(=O)O)cs3)nc2-c2ccccc2)CC1`, for which the 50% inhibitory concentration (IC50) in data set [1] worked out at 17.3 µM.

For the compound `CC(=O)Nc1cc(-c2ccccc2)nn1-c1nc(C(=O)O)cs1`, the half-inhibitory concentration (IC50) in data set [1] is over 57 µM; in data set [4], 9.57 µM. For the same compound, the inhibition entry at L-lactate dehydrogenase [2] and on L-lactate dehydrogenase [3] was “inactive” each time.

Consider `O=C(O)c1csc(-n2nc(-c3cccc(Cl)c3)cc2O)n1`, for which the half-maximal inhibitory concentration (IC50) in data set [1] was over 57 µM; in data set [4] it was 0.168 µM. Further, the inhibition result on L-lactate dehydrogenase [2] and on L-lactate dehydrogenase [3] was “inactive” each time.

As to `NS(=O)(=O)c1cccc(Cc2c(-c3ccc(F)c(F)c3)nn(-c3nc(C(=O)O)cs3)c2O)c1`, the IC50 in data set [1] is over 57 µM.

The compound `NS(=O)(=O)c1ccc(Cc2cn(-c3nc(C(O)C(F)(F)F)cs3)nc2-c2ccccc2)cc1` (stereo not drawn) displayed a half-maximal inhibitory concentration (IC50) in data set [1] of over 57 µM.

Regarding `Cc1cc(-c2ccccc2)nn1-c1nc(C(=O)O)cs1`, the IC50 in data set [1] is over 57 µM; in data set [4] it was 15.4 µM. Moreover, the inhibition entry on L-lactate dehydrogenase [2] and on L-lactate dehydrogenase [3] was “inactive” throughout.

For `O=C(O)c1csc(-n2nc(-c3ccccc3)cc2C(F)F)n1`, the IC50 in data set [1] and in data set [4] was over 57 µM in each case. Moreover, the inhibition entry on L-lactate dehydrogenase [2] and on L-lactate dehydrogenase [3] was “inactive” in each case.

Regarding `O=C(O)c1csc(-n2nc(-c3ccc(F)cc3)cc2C(F)(F)F)n1`, the inhibition entry on L-lactate dehydrogenase [2] and at L-lactate dehydrogenase [3] was “inactive” each time.

`O=C(O)c1ccc(Cc2c(-c3cccc(-c4ccccc4)c3)nn(-c3nc(C(=O)O)cs3)c2O)cc1` showed an IC50 in data set [1] of 33.8 µM.

For `NS(=O)(=O)c1ccc(Oc2cn(-c3nc(C(=O)O)cs3)nc2-c2ccccc2)cc1`, in data set [1], the half-inhibitory concentration (IC50) came to 0.124 µM.

Consider `O=C(O)c1csc(-n2nc(-c3ccc(F)c(F)c3)cc2O)n1`, for which the IC50 in data set [1] is over 57 µM; in data set [4] it was 0.15 µM. Moreover, the inhibition entry at L-lactate dehydrogenase [2] and on L-lactate dehydrogenase [3] was “inactive” throughout.

In data set [1], `NS(=O)(=O)c1ccc(Cc2c(-c3cccc(-c4ccccc4)c3)nn(-c3nc(-c4nnn[nH]4)cs3)c2O)cc1` gave an IC50 of over 57 µM.

`O=C(O)c1csc(-n2nc(-c3ccc(F)cc3)cc2O)n1`: the figures for the concentration for half-maximal inhibition (IC50) in data set [1] and in data set [4] were over 57 µM and 0.095 µM, respectively. In addition, the inhibition entry at L-lactate dehydrogenase [2] and at L-lactate dehydrogenase [3] was “inactive” throughout.

On to `NS(=O)(=O)c1ccc(Cc2c(-c3ccccc3)nn(-c3nc(CO)cs3)c2C(F)(F)F)cc1`, for which it took 25.5 µM to reach half-maximal inhibition in data set [1] (IC50).

Turning to `NS(=O)(=O)c1ccc(C(=O)Nc2cn(-c3nc(C(=O)O)cs3)nc2-c2ccccc2)cc1`, the half-maximal inhibitory concentration (IC50) in data set [1] was over 57 µM.

In the case of `O=C(O)c1csc(-n2nc(-c3cccc(OC(F)(F)F)c3)cc2O)n1`, the 50% inhibitory concentration (IC50) in data set [1] is over 57 µM; in data set [4], 0.299 µM. Moreover, the inhibition result at L-lactate dehydrogenase [2] and on L-lactate dehydrogenase [3] was “inactive” in each case.

Take `O=C(O)c1csc(-n2nc(-c3ccncc3)cc2O)n1`: the IC50 in data set [1] was over 57 µM; in data set [4], 0.669 µM. Also, the inhibition result at L-lactate dehydrogenase [2] and on L-lactate dehydrogenase [3] was “inactive” in each case.

As for `O=C(O)c1csc(-n2nc(-c3ccc(Cl)c(Cl)c3)cc2O)n1`, the half-inhibitory concentration (IC50) was over 57 µM in data set [1] and 0.106 µM in data set [4]. Moreover, the inhibition entry at L-lactate dehydrogenase [2] and at L-lactate dehydrogenase [3] was “inactive” in each case.

On to `O=C(O)c1csc(-n2nc(-c3ccccc3Cl)cc2C(F)(F)F)n1`, for which the IC50 in data set [1] and in data set [4] was over 57 µM in each case. Besides, the inhibition entry on L-lactate dehydrogenase [2] and at L-lactate dehydrogenase [3] was “inactive” each time.

With `NS(=O)(=O)c1ccc(NCc2cn(-c3nc(C(=O)O)cs3)nc2-c2ccccc2)cc1`, in data set [1], the IC50 is over 57 µM.

Take `O=C(O)c1csc(-n2nc(-c3ccccn3)cc2O)n1`: the IC50 in data set [1] is over 57 µM; in data set [4], 1.02 µM. The inhibition entry on L-lactate dehydrogenase [2] and at L-lactate dehydrogenase [3] was “inactive” each time.

In the case of `Cc1c(Cc2ccc(S(N)(=O)=O)cc2)c(-c2ccccc2)nn1-c1nc(C(=O)O)cs1`, the midpoint of inhibition in data set [1], the IC50, lay at 0.042 µM.

As to `O=C(O)c1csc(-n2nc(-c3cccc(-c4ccccc4)c3)cc2O)n1`, the IC50 in data set [1] is over 57 µM; in data set [4], 0.266 µM. Besides, the inhibition result on L-lactate dehydrogenase [2] and on L-lactate dehydrogenase [3] was “inactive” each time.

As to `O=C(O)c1csc(-n2nc(-c3cccc(C(F)(F)F)c3)cc2O)n1`, the IC50 is over 57 µM in data set [1] and 0.189 µM in data set [4]. Besides, the inhibition result on L-lactate dehydrogenase [2] and on L-lactate dehydrogenase [3] was “inactive” in each case.

As to `NS(=O)(=O)c1ccc(Cc2c(-c3ccccc3)nn(-c3nc(C(=O)O)cs3)c2-c2ccccc2)cc1`, half-maximal inhibition in data set [1] (IC50) was put at 0.139 µM.

In the case of `NS(=O)(=O)c1ccc(Cc2c(-c3cccc(-c4ccccc4F)c3)nn(-c3nc(C(=O)O)cs3)c2O)cc1`, the half-maximal inhibitory concentration (IC50) in data set [8] is over 57 µM. The Drug uptake result in data set [6] and in data set [7] was “Active” each time.

Regarding `COc1ccc(-c2cc(O)n(-c3nc(C(=O)O)cs3)n2)cc1`, the 50% inhibitory concentration (IC50) in data set [1] was over 57 µM; in data set [4], 0.229 µM. Further, the inhibition entry at L-lactate dehydrogenase [2] and at L-lactate dehydrogenase [3] was “inactive” in each case.

On to `O=C(O)c1csc(-n2nc(-c3cccc(F)c3)cc2O)n1`, for which the figures for the 50% inhibitory concentration (IC50) in data set [1] and in data set [4] were over 57 µM and 0.162 µM, respectively. For the same compound, the inhibition result at L-lactate dehydrogenase [2] and at L-lactate dehydrogenase [3] was “inactive” in each case.

The compound `NS(=O)(=O)c1ccc(Oc2c(-c3ccccc3)nn(-c3nc(C(=O)O)cs3)c2C2CC2)cc1` gave a half-inhibitory concentration (IC50) in data set [1] of 0.065 µM.

For `O=C(O)c1csc(-n2nc(-c3cccc(Cl)c3)cc2C(F)(F)F)n1`, the IC50 in data set [1] and in data set [4] was over 57 µM in each case. Also, the inhibition result on L-lactate dehydrogenase [2] and at L-lactate dehydrogenase [3] was “inactive” throughout.

Regarding `O=C(O)c1csc(-n2nc(-c3ccccc3F)cc2O)n1`, the IC50 in data set [1] was over 57 µM; in data set [4] it was 0.134 µM. Further, the inhibition entry on L-lactate dehydrogenase [2] and at L-lactate dehydrogenase [3] was “inactive” throughout.

Compound `NC(=O)c1csc(-n2nc(-c3cccc(-c4ccccc4)c3)c(Cc3ccc(S(N)(=O)=O)cc3)c2O)n1` gave an IC50 in data set [1] of 27.7 µM.

The compound `O=C(O)c1csc(-n2nc(-c3ccc(F)c(F)c3)c(Cc3ccccc3)c2O)n1` showed an IC50 in data set [1] of over 57 µM.

On to `O=C(O)c1csc(-n2nc(-c3ccc(F)cc3F)cc2O)n1`, for which the IC50 is over 57 µM in data set [1] and 0.084 µM in data set [4]. Also, the inhibition result on L-lactate dehydrogenase [2] and at L-lactate dehydrogenase [3] was “inactive” throughout.

In the case of `CCOC(=O)c1csc(-n2nc(-c3cccc(-c4ccccc4)c3)c(Cc3ccc(S(N)(=O)=O)cc3)c2C(F)(F)F)n1`, in data set [1], the IC50 was over 57 µM.

In the case of `CNS(=O)(=O)c1ccc(Cc2c(-c3cccc(-c4ccccc4)c3)nn(-c3nc(C(=O)O)cs3)c2O)cc1`, the concentration for half-maximal inhibition (IC50) in data set [1] was over 57 µM.

In general, IC50 refers to the concentration at which inhibition is half-maximal.

Values taken from ChEMBL document CHEMBL4028893, “Discovery and Optimization of Potent, Cell-Active Pyrazole-Based Inhibitors of Lactate Dehydrogenase (LDH)” (J Med Chem, 2017).
